Reference: ChEMBL document CHEMBL4017545, “Small Molecule Antagonists of the Interaction between the Histone Deacetylase 6 Zinc-Finger Domain and Ubiquitin” (J Med Chem, 2017)
pIC50, pKd: −log10 of the molar value.

What was measured:
[1] = target: T1, Protein deacetylase HDAC6 (Homo sapiens, UniProt Q9UBN7); assay: Displacement of FITC-labeled RLRGG peptide from N-terminal His6-tagged HDAC6 zinc-finger ubiquitin binding domain (1109 to 1215 residues)(unknown origin) expressed in Escherichia coli BL21(DE3) after 10 mins by fluorescence polarization assay; conditions: for pIC50: read-out: IC50
T1 sequence (Q9UBN7 whole entry): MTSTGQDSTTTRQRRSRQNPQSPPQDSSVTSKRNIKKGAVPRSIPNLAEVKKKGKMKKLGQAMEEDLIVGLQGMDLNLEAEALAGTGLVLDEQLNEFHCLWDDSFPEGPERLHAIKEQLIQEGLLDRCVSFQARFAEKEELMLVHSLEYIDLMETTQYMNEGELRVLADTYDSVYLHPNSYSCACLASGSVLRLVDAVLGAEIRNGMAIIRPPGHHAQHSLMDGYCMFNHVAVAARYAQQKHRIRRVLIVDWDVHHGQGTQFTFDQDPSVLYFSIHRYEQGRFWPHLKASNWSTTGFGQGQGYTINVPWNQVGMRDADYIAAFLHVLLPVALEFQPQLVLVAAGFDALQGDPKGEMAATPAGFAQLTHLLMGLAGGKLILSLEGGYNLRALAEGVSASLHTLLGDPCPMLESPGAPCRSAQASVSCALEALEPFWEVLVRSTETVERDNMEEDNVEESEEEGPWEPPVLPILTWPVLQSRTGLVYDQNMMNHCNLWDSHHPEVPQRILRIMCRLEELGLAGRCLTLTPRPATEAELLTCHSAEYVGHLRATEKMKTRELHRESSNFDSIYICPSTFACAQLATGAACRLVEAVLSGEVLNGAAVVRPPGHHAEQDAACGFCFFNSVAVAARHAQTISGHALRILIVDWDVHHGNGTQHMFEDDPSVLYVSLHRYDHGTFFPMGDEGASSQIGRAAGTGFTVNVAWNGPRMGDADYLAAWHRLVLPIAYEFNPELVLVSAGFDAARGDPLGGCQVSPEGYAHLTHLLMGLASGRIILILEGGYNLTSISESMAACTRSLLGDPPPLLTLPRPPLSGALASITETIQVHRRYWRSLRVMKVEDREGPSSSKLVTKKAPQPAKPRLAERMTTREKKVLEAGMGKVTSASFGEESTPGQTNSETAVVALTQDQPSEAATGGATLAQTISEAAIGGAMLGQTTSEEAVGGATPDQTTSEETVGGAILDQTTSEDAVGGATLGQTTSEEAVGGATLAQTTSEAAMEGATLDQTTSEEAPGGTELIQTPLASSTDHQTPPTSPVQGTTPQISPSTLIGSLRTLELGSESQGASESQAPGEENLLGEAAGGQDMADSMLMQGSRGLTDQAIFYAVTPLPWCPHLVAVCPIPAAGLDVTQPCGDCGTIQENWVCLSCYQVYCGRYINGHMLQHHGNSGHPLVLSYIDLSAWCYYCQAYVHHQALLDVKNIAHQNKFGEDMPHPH

[2] = target: T1, Protein deacetylase HDAC6; assay: Binding affinity to N-terminal Avi-tagged/C-terminal His6-tagged HDAC6 zinc-finger ubiquitin binding domain (1109 to 1215 residues)(unknown origin) expressed in Escherichia coli BL21(DE3) after 30 secs by SPR assay; conditions: for pKd: read-out: Kd
[3] = target: T1, Protein deacetylase HDAC6; assay: Binding affinity to N-terminal His6-tagged HDAC6 zinc-finger ubiquitin binding domain (1109 to 1215 residues)(unknown origin) expressed in Escherichia coli BL21(DE3) by isothermal titration calorimetry; conditions: for pKd: read-out: Kd

| IC50 [1] | pIC50 [1] | SMILES | also measured |
| --- | --- | --- | --- |
| Not Active |  | O=C(O)CCc1nc2ccccc2nc1OCc1ccccc1 |  |
|  | 3.96 | O=C(O)CCc1nc2ccccc2nc1OCCOc1ccccn1 |  |
|  | 4.15 | Cn1c(=O)c(CCC(=O)O)nc2ccccc21 |  |
|  | 4.26 | O=C(O)CCc1nc2cc(Cl)ccc2s1 | pKd [2]: 4.22; pKd [3]: 4.40 |
|  | 3.85 | Cn1ccnc1COc1nc2ccccc2nc1CCC(=O)O |  |
|  | 3.74 | Cc1cccc(OCCOc2nc3ccccc3nc2CCC(=O)O)c1 |  |
|  | 3.46 | O=C(O)CCn1nc(-c2cccnc2)ccc1=O | pKd [2]: 3.66; pKd [3]: 3.68 |
| Not Active |  | O=C(O)CCc1nc2ccccc2nc1OCc1cccs1 |  |
|  | 3.57 | O=C(O)CCc1nc2ccccc2nc1OCc1ccccn1 |  |
| Not Active |  | CCC(=O)Nc1nc(C)cs1 | Kd [2]: Not Active; Kd [3]: Not Active |
|  | 4.22 | O=C(O)CCc1nc2ccccc2nc1Sc1ccccc1 |  |

| SMILES | IC50 [1] | pIC50 [1] | also measured |
| --- | --- | --- | --- |
| Cc1n[nH]c(=O)nc1Nc1ccc(C(C)C)cc1 | Not Active |  | Kd [2]: Not Active; Kd [3]: Not Active |
